In US20220096664A1, “STABILIZED FORMULATIONS CONTAINING IODINATED CONTRAST AGENTS AND CYCLODEXTRINS” (Verrow Pharmaceuticals, Inc., priority 2012, published 2022):
Where two headings read alike, the source gives them in different places. Values belong to the molecule of their own block, whether it stands above or below them.

Assay type: physicochemical
Settings: for Iodide formed: 50 mM agent, 10 mM TRIS, pH 7.4, autoclaved then UV 18 h
Description: The lamps were switched on and the solutions irradiated for 18 to 24 hours for the ultraviolet (UV) lamps or 72 to 90 hours for the visible (VIS) light lamps. At the end of the selected irradiation time, the cuvettes were removed from the photolysis chamber and mixed by inversion 2-times. The caps were then removed and 40 microliter aliquots taken and diluted with 1 mL of an aqueous solution containing ˜0.9 mg/mL sodium thiosulfate. The thiosulfate solution converted any I2, IO3^−, and I3^− present in the solution tor such that total iodine species could be determined in one assay.
The diluted solutions were assayed by high pressure liquid chromatography (HPLC) using a 4.6×250 mm, C-18, 5 micron particle size, reversed phase column with detection at 280 nm for the contrast agent and 230 nm for the thiosulfate and the iodide ion (r). A mobile phase of 30:70 methanol:aqueous buffer (50 mM KH2PO4+7 mL/L 40% tetrabutyl ammonium hydroxide) at 0.75 mL/min was used for elution. Injection volume was 20 microliters. External standards were prepared containing each contrast agent, potassium iodide, and sodium thiosulfate solution and analyzed along with the irradiated samples. The results were reported as weight percentage iodide formed (mg iodide/mg contrast agent times 100).
Aqueous solutions were prepared containing 50 mM iodinated contrast agent, 10 mM tromethamine HCl buffer (TRIS), with and without sulfobutylether beta-cyclodextrin with an average degree of substitution-7 (SBE7-β-CD), or 2-hydroxypropyl beta-cyclodextrin with an average degree of substitution of ˜6.3 (HP6.3-β-CD) or ˜4.3 (HP4.3-β-CD). The iohexol solution was prepared by dissolving solid iohexol powder while the other solutions were prepared by diluting commercial formulated products and adding sufficient TRIS buffer to reach 10 mM. The pH of the solutions was adjusted to 7.4 with 0.1N hydrochloric acid.
Aliquots of the solutions were irradiated with visible light for 72 hours (0.52 million lux hours). Other aliquots were autoclaved for 20 minutes at 121° C., cooled to room temperature and then irradiated with ultraviolet light for 18 hours (119 watt hours/m2). The solutions were then processed, analyzed and reported as in Example 2, except that the chromatographic peaks of the contrast agents were evaluated at 300 nm for both samples and standards.
Aqueous solutions were prepared containing 50 mM iohexol, 0, 2.5, 5, 7.5, or 10 mM tromethamine HCl (TRIS) buffer, with and without 2.5 mM sulfobutylether beta-cyclodextrin with an average degree of substitution-7 (SBE7-β-CD). The pH of the solutions was adjusted to 7.4 with 0.1N hydrochloric acid and the solutions were transferred to glass vials. The vials were stoppered, crimp-capped and autoclaved for 20 minutes at 121° C. The pH of the autoclaved solutions was measured after the solutions were at room temperature.
Aliquots of the autoclaved solutions were irradiated with visible light for 72 hours (0.52 million lux hours) and other aliquots irradiated with ultraviolet light for 18 hours (119 watt hours/m2). The solutions were then processed, analyzed and reported as in Example 2, except that the chromatographic peak of the iohexol was evaluated at 300 nm for both samples and standards.
Aqueous formulations were prepared containing iodinated contrast agents at concentrations used commercially in medical procedures. Sulfobutylether-cyclodextrin, sodium salt, average degree of substitution ˜7 (SBE7CD) was added at varying agent:CD mole ratios. The formulations were placed in glass vials, sealed with rubber stoppers and aluminum crimps, and autoclaved at 121° C. for 20 minutes. […]

Iodide formed (agent:SBE7-β-CD 1:0.1): 0.330 wt %
Iodide formed (no SCD (1:0)): 0.487 wt %
Iodide Formed, UV (Iopromide 150 mg I/mL, pH 7.4, agent:SBE7CD 1:0.05, autoclaved then UV 24 h): 0.110 wt %
Iodide Formed, VIS (Iopromide 150 mg I/mL, pH 7.4, agent:SBE7CD 1:0.05, autoclaved then VIS 72 h): 0.0671 wt %
Iodide Formed, UV (Iopromide 150 mg I/mL, pH 7.4, no SCD (1:0), autoclaved then UV 24 h): 0.148 wt %
Iodide Formed, VIS (Iopromide 150 mg I/mL, pH 7.4, no SCD (1:0), autoclaved then VIS 72 h): 0.0735 wt %
Iodide Formed, UV (Iopromide 240 mg I/mL, pH 7.4, agent:SBE7CD 1:0.05, autoclaved then UV 24 h): 0.113 wt %
Iodide Formed, VIS (Iopromide 240 mg I/mL, pH 7.4, agent:SBE7CD 1:0.05, autoclaved then VIS 72 h): 0.0413 wt %
Iodide Formed, UV (Iopromide 240 mg I/mL, pH 7.4, no SCD (1:0), autoclaved then UV 24 h): 0.129 wt %
Iodide Formed, VIS (Iopromide 240 mg I/mL, pH 7.4, no SCD (1:0), autoclaved then VIS 72 h): 0.0504 wt %
Iodide Formed, UV (Iopromide 300 mg I/mL, pH 7.4, agent:SBE7CD 1:0.05, autoclaved then UV 24 h): 0.102 wt %
Iodide Formed, VIS (Iopromide 300 mg I/mL, pH 7.4, agent:SBE7CD 1:0.05, autoclaved then VIS 72 h): 0.0426 wt %
Iodide Formed, UV (Iopromide 300 mg I/mL, pH 7.4, no SCD (1:0), autoclaved then UV 24 h): 0.110 wt %
Iodide Formed, VIS (Iopromide 300 mg I/mL, pH 7.4, no SCD (1:0), autoclaved then VIS 72 h): 0.0493 wt %
Iodide Formed, UV (Iopromide 370 mg I/mL, pH 7.4, agent:SBE7CD 1:0.05, autoclaved then UV 24 h): 0.0780 wt %
Iodide Formed, VIS (Iopromide 370 mg I/mL, pH 7.4, agent:SBE7CD 1:0.05, autoclaved then VIS 72 h): 0.0351 wt %
Iodide Formed, UV (Iopromide 370 mg I/mL, pH 7.4, no SCD (1:0), autoclaved then UV 24 h): 0.0989 wt %
Iodide Formed, VIS (Iopromide 370 mg I/mL, pH 7.4, no SCD (1:0), autoclaved then VIS 72 h): 0.0392 wt %
SMILES: COCC(=O)Nc1c(I)c(C(=O)NCC(O)CO)c(I)c(C(=O)N(C)CC(O)CO)c1I (stereo not shown) [Iopromide, iopromide]

SMILES: CC(=O)N(CC(O)CN(C(C)=O)c1c(I)c(C(=O)NCC(O)CO)c(I)c(C(=O)NCC(O)CO)c1I)c1c(I)c(C(=O)NCC(O)CO)c(I)c(C(=O)NCC(O)CO)c1I (stereo not shown) [Iodixanol, iodixanol]
Iodide formed (agent:SBE7-β-CD 1:0.1): 0.220 wt %
Iodide formed (no SCD (1:0)): 0.292 wt %
Iodide Formed, UV (Iodixanol 270 mg I/mL, pH 7.4, agent:SBE7CD 1:0.05, autoclaved then UV 24 h): 0.0791 wt %
Iodide Formed, VIS (Iodixanol 270 mg I/mL, pH 7.4, agent:SBE7CD 1:0.05, autoclaved then VIS 72 h): 0.0288 wt %
Iodide Formed, UV (Iodixanol 270 mg I/mL, pH 7.4, no SCD (1:0), autoclaved then UV 24 h): 0.0845 wt %
Iodide Formed, VIS (Iodixanol 270 mg I/mL, pH 7.4, no SCD (1:0), autoclaved then VIS 72 h): 0.0325 wt %
Iodide Formed, UV (Iodixanol 320 mg I/mL, pH 7.4, agent:SBE7CD 1:0.05, autoclaved then UV 24 h): 0.0743 wt %
Iodide Formed, VIS (Iodixanol 320 mg I/mL, pH 7.4, agent:SBE7CD 1:0.05, autoclaved then VIS 72 h): 0.0251 wt %
Iodide Formed, UV (Iodixanol 320 mg I/mL, pH 7.4, no SCD (1:0), autoclaved then UV 24 h): 0.0751 wt %
Iodide Formed, VIS (Iodixanol 320 mg I/mL, pH 7.4, no SCD (1:0), autoclaved then VIS 72 h): 0.0265 wt %
